Measured values: patent publication US20190185479A1, “BICYCLIC NITROGENATED HETEROCYCLIC COMPOUND” (MITSUBISHI TANABE PHARMA CORPORATION, priority 2016, published 2019)
pIC50: −log10 of the molar value.

Columns and labels:
Format in all cases: biochemical
[1] = molecular target: hPDE10A (Homo sapiens, UniProt Q9Y233); experiment: PDE10 inhibition assay (IC50), Experimental Example 3; details: for pIC50: hPDE10A, read-out: PDE inhibition assay IC50, PDE10; for inhibition at 10 µM: at 10 μmol/L, read-out: inhibition rate (%) at prescribed concentration, PDE10
Sequence of hPDE10A (Q9Y233 290-1055 limits assumed): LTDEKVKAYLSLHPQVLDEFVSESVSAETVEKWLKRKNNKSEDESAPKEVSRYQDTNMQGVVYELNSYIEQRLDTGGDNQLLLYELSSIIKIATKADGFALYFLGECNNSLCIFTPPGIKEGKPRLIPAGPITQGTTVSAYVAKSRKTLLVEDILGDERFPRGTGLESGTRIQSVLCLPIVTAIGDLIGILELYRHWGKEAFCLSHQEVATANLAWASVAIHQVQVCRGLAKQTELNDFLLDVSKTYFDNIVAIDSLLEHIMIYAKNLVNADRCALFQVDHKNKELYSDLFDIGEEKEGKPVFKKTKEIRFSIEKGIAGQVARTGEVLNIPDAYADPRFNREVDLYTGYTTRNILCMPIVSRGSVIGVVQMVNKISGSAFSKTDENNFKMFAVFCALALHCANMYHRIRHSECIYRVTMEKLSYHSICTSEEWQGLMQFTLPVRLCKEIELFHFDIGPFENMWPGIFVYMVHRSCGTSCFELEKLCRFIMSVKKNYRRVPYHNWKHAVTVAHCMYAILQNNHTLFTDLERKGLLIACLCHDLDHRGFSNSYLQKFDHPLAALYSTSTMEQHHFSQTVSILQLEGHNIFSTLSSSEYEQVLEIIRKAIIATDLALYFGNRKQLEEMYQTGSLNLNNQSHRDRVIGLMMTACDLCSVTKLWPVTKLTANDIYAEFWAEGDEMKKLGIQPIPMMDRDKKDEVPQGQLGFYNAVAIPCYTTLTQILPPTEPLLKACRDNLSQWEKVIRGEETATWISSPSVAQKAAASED
How it was run: (§1)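 Recombinant human enzymes incubated with compound and 3 nmol/L cAMP (final) in Tris-HCl pH 7.5 buffer with MgCl2, BSA, DTT, 2% DMSO final, 60 min at room temperature. Residual cAMP measured by TR-FRET (LANCE Ultra), reaction stopped with 0.5 mmol/L IBMX. IC50 from inhibition relative to no-compound (0%) and no-enzyme (100%) controls.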

[2] = molecular target: T1, hPDE8B (Homo sapiens, UniProt O95263); experiment: PDE8 inhibition assay (IC50), Experimental Example 3; details: for pIC50: hPDE8B, read-out: PDE inhibition assay IC50, PDE8; for inhibition at 10 µM: at 10 μmol/L
T1 construct: purchased SB Drug Discovery
T1 sequence (O95263 whole entry): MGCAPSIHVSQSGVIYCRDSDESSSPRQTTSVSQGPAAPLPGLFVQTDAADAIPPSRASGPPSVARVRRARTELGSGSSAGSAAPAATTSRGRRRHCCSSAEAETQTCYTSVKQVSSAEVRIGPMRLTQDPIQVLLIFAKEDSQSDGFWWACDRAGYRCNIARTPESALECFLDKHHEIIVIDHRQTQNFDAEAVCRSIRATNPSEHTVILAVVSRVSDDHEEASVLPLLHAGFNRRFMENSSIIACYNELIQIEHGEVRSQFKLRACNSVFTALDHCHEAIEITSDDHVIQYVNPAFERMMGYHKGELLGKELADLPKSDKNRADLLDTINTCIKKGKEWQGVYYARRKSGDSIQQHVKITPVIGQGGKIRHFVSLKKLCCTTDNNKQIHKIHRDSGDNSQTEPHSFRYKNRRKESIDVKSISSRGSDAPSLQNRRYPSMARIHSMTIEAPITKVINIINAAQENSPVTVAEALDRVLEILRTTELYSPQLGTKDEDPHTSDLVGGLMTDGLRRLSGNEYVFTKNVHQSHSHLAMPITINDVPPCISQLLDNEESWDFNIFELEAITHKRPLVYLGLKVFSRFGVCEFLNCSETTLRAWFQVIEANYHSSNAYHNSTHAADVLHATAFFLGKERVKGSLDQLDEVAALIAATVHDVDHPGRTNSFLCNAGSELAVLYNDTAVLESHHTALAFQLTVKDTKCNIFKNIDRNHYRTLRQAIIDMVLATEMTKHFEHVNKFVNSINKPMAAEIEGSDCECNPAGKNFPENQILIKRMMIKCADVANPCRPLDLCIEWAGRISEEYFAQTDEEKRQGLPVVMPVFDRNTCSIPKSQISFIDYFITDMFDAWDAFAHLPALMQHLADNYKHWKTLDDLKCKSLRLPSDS
How it was run: as §1

[3] = molecular target: T2, Human PDE7B (hPDE7B) (Homo sapiens, UniProt Q9NP56); experiment: Measurement of PDE7 inhibitory activity (Experimental Example 1; residual cAMP, LANCE Ultra cAMP TR-FRET); details: cAMP 3 nmol/L, room temperature 60 minutes
T2 construct: made in house; host or cells: COS-7 cells
T2 sequence (Q9NP56 whole entry): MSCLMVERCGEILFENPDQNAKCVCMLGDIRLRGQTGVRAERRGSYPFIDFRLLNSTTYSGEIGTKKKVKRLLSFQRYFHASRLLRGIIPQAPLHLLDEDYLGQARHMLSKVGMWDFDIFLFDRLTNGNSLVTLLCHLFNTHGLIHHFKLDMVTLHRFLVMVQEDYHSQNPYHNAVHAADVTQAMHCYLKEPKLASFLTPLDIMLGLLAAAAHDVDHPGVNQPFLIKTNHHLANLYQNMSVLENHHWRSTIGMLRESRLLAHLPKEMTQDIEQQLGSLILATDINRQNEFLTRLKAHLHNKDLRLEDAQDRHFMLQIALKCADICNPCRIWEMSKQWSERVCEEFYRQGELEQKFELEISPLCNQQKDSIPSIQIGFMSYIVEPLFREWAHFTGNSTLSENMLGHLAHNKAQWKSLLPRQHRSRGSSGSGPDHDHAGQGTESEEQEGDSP
How it was run: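 hPDE7B from transfected COS-7 cells reacted with 3 nmol/L cAMP (final) and compound (2% DMSO) in 50 mmol/L Tris-HCl pH 7.5, 1 mmol/L MgCl2, 0.1% BSA, 0.5 mmol/L DTT, 60 min at room temperature. Reaction stopped with IBMX; residual cAMP measured by TR-FRET. Inhibition scaled between no-compound and no-enzyme controls.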

[4] = molecular target: T3, hPDE4D (Homo sapiens, UniProt Q08499); experiment: PDE4 inhibition assay (IC50), Experimental Example 3; details: for inhibition at 10 µM: at 10 μmol/L; for pIC50: hPDE4D, read-out: PDE inhibition assay IC50, PDE4
T3 construct: purchased SB Drug Discovery
T3 sequence (Q08499 whole entry): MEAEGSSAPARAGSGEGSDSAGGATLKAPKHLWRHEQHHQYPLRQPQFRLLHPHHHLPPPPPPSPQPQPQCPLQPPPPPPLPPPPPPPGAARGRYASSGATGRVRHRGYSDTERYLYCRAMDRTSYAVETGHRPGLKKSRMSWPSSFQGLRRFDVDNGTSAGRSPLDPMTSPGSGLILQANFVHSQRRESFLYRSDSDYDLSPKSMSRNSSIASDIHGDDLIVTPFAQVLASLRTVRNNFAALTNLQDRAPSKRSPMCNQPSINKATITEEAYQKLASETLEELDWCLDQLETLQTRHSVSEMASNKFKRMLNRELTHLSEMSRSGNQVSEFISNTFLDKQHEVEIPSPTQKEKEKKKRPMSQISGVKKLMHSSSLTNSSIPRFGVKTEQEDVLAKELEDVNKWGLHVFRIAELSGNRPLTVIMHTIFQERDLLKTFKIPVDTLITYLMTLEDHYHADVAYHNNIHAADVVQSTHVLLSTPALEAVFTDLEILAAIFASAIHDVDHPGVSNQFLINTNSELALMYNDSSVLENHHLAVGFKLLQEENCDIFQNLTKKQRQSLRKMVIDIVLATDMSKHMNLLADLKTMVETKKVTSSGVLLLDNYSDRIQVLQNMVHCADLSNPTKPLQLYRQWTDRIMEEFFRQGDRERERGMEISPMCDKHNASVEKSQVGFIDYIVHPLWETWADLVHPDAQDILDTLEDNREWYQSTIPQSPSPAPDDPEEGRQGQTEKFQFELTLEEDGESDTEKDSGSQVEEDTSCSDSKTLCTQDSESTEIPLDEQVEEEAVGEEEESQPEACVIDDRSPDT
How it was run: as §1

[5] = read-out: inhibition rate (%) at prescribed concentration, PDE4
[6] = read-out: inhibition rate (%) at prescribed concentration, PDE8

SMILES | pIC50 [1] | inhibition at 0.1 µM ([2]; at 0.1 μmol/L, read-out: inhibition rate (%) at prescribed concentration, PDE8) [%] | pIC50 [3] | inhibition at 0.1 µM ([4]; at 0.1 μmol/L, read-out: inhibition rate (%) at prescribed concentration, PDE4) [%] | pIC50 [2] | inhibition at 10 µM [4, 5] [%] | pIC50 [4] | inhibition at 10 µM [1] [%] | inhibition at 10 µM [2, 6] [%] | inhibition at 1 µM ([2]; at 1 μmol/L, read-out: inhibition rate (%) at prescribed concentration, PDE8) [%]
Nc1nccn2c(C3CCCCC3)ncc12 [Example 180, 3-cyclohexylimidazo[1,5-a]pyrazin-8-amine] | – | – | 6.41 | – | – | – | 5.11 | 41 | 36 | –
Nc1ncnc2c1cnn2C1CCCCC1 [Example 181] | – | – | 6.47 | – | – | 21 | – | 49 | 24 | –
Cc1nn(C2CCCCC2)c2ncnc(N)c12 [Example 184] | 6.30 | – | 6.27 | – | – | 48 | – | – | 18 | –
Nc1cccn2c(C3CCCCC3)nnc12 [Example 186, 3-cyclohexyl[1,2,4]triazolo[4,3-a]pyridin-8-amine] | – | – | 6.34 | – | – | -5 | – | 7 | -1 | –
Nc1ncnc2c(C3CCCCC3)noc12 [Example 188, 3-cyclohexylisoxazolo[4,5-d]pyrimidin-7-amine] | – | – | 6.68 | – | 5.13 | 38 | – | 50 | – | –
Nc1cncn2c(C3CCCCC3)nnc12 [Example 189, 3-cyclohexyl[1,2,4]triazolo[4,3-c]pyrimidin-8-amine] | – | – | 6.33 | – | – | 22 | – | 0.9 | 24 | –

Stronger by pIC50 [3], values ahead:

pIC50 [1] | inhibition at 0.1 µM ([2]; at 0.1 μmol/L, read-out: inhibition rate (%) at prescribed concentration, PDE8) [%] | pIC50 [3] | inhibition at 0.1 µM ([4]; at 0.1 μmol/L, read-out: inhibition rate (%) at prescribed concentration, PDE4) [%] | pIC50 [2] | inhibition at 10 µM [4, 5] [%] | pIC50 [4] | inhibition at 10 µM [1] [%] | inhibition at 10 µM [2, 6] [%] | inhibition at 1 µM ([2]; at 1 μmol/L, read-out: inhibition rate (%) at prescribed concentration, PDE8) [%] | SMILES
5.43 | 98 | 7.22 | 66 | – | – | – | – | – | – | CC(C)(C)OC(=O)N1CCC[C@H](c2nnc3c(N)nccn23)C1 [Example 167]
4.68 | – | 7.05 | – | 5.76 | 33 | – | – | – | – | Nc1nccn2c(C3CCCOC3)nnc12 (stereo not shown) [Example 169]
5.14 | – | 7.15 | – | 5.53 | 48 | – | – | – | – | Cc1cnc(N)c2nnc(C3CCCCC3)n12 [Example 171, 3-cyclohexyl-5-methyl[1,2,4]triazolo[4,3-a]pyrazin-8-amine]
4.75 | – | 7.10 | – | 5.40 | – | 5.33 | – | – | – | Nc1nccn2c([C@H]3[C@@H]4CCC[C@@H]43)nnc12 [Example 179, 3-[(1R,5S,6r)-bicyclo[3.1.0]hex-6-yl][1,2,4]triazolo[4,3-a]pyrazin-8-amine]
4.81 | – | 7.40 | – | 5.22 | – | 4.80 | – | – | – | Nc1nccn2c([C@H]3CCCC(F)(F)C3)nnc12 [Example 212, 3-[(1S)-3,3-difluorocyclohexyl][1,2,4]triazolo[4,3-a]pyrazin-8-amine]
5.25 | – | > 8.00 | – | 5.82 | – | 5.73 | – | – | – | CC1(C)CCCN(c2nnc3c(N)ncc(Cl)n23)C1 [Example 248, 5-chloro-3-(3,3-dimethylpiperidin-1-yl) [1,2,4]triazolo[4,3-a]pyrazin-8-amine]
5.13 | – | > 8.00 | – | – | – | 5.74 | – | – | 53 | CC1(C)CCCN(c2nnc3c(N)ncc(C(F)(F)F)n23)C1 [Example 252, 3-(3,3-dimethylpiperidin-1-yl)-5-(trifluoromethyl) [1,2,4]triazolo[4,3-a]pyrazin-8-amine]
